We go through six compounds from patent US4512924A, “Pyridazo[1,2-a][1,2]diazepines” (Hoffmann-La Roche Inc., priority 1982, dated 1985).

SMILES strings stand for the structures.

The test has as its target T1, angiotensin converting enzyme (Oryctolagus cuniculus, UniProt P12822).
T1 sequence (P12822 34-1310): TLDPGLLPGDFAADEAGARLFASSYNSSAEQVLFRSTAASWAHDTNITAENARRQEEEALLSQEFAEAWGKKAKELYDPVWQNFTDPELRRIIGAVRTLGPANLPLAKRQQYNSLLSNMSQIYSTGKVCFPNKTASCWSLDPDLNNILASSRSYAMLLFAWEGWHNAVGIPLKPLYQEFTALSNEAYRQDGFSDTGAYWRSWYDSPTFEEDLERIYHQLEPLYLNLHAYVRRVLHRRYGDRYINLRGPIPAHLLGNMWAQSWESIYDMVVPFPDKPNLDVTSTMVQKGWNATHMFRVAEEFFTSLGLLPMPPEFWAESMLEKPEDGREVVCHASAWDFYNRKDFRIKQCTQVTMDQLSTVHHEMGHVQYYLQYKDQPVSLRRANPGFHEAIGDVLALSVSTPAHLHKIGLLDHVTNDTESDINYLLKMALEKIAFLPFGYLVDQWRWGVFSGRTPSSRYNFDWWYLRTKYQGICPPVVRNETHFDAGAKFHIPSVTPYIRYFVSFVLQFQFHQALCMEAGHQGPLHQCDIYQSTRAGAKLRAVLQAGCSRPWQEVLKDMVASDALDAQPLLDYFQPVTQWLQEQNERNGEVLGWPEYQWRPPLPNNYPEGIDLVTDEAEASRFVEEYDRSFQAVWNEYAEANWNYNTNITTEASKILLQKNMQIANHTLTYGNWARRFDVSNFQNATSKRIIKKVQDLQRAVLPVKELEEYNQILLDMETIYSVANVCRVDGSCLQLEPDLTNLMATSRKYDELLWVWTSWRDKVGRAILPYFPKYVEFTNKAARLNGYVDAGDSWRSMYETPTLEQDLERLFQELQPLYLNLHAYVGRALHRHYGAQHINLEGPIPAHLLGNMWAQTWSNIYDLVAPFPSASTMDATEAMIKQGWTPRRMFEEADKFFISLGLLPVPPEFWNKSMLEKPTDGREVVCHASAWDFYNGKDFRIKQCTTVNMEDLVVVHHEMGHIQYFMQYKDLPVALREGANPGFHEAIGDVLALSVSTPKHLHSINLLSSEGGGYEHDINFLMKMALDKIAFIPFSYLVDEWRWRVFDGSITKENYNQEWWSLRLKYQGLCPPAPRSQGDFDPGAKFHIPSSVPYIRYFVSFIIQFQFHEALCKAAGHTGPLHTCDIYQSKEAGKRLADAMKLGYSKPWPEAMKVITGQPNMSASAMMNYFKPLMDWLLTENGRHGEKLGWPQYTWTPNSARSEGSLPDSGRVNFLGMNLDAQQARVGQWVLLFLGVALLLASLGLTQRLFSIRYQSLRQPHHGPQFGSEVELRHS
The experiment in a line: in vitro inhibition of angiotensin converting enzyme (cleavage of hippuryl-histidyl-leucine). Format: biochemical. The following applies: hippuryl-histidyl-leucine 2 mM, potassium phosphate buffer pH 8.3, 100 mM, NaCl 300 mM, 24 minutes at 37° C., read-out: IC50 (concentration of test substance which reduces by 50% the cleavage of hippuryl-histidyl-leucine by angiotensin converting enzyme). As to the method:
The activity of the present compounds in inhibiting angiotensin converting enzyme in vitro can be determined by the following test.
The method used is based on the method of Cushman and Cheung (Biochem. Pharmacol., 20. 1637-1648) incorporating the modifications introduced by Hayakari et al (Anal. Biochem., 84. 361-369). The substrate (hippuryl-histidyl-leucine, 2 mM) is incubated with angiotensin converting enzyme in the presence or absence of various concentrations of test substance in potassium phosphate buffer (pH 8.3; 100 mM) containing sodium chloride (300 mM) for 24 minutes at 37° C. (total value 500 μl). (If the test substance is an ester, it is appropriate to cleave it by means of hog liver esterase before carrying out the test). The reaction is terminated by the addition of 3 ml of potassium phosphate buffer (pH 8.3; 200 mM) at 0° C. 2,4,6-Trichloro-s-triazine (3%) in 1.5 ml of dioxane is added and the mixture is agitated until the yellow chromophore has developed fully. The samples are then centrifuged to remove any precipitate which has formed. The yellow chromophore formed by the reaction of the 2,4,6-trichloro-s-triazine with free hippuric acid is measured spectrophotometrically at 382 nm. IC50 values are defined as the concentration of test substance which reduces by 50% the cleavage of hippuryl-histidyl-leucine by angiotensin converting enzyme under the aforementioned conditions.
The results obtained in the foregoing test using representative compounds of formula I as the test substance are compiled in the following Table.

Consider `O=C(O)C(CCc1ccccc1)N[C@H]1CCC(=O)N2CCC[C@@H](C(=O)O)N2C1=O` (single isomer, unassigned) [Compound A], for which the IC50 stood at 4.2 nM.
The same measure for `O=C(O)C(CCCc1ccccc1)N[C@H]1CCC(=O)N2CCC[C@@H](C(=O)O)N2C1=O` (mixture of isomers) [Compound D, 9(S)-[1(R and S)-carboxy-4-phenylbutylamino]-octahydro-6,10-dioxo-6H-pyridazo[1,2-a][1,2]diazepine-1(S)-carboxylic acid]: 11 nM; for `O=C(O)C(CCc1ccccc1)NC1CCN2CCCC(C(=O)O)N2C1=O` (racemic) [Compound C, 8-(1-Carboxy-3-phenylpropylamino)-octahydro-9-oxopyridazo[1,2-a]pyridazine-1-carboxylic acid]: 55 nM.
The result for `O=C(O)C(CCc1ccccc1)N[C@H]1CC(=O)N2CCCC(C(=O)O)N2C1=O` (single isomer, unassigned) [Compound B] reads 22 nM; that for `O=C(O)C(Cc1ccccc1)N[C@H]1CCC(=O)N2CCC[C@@H](C(=O)O)N2C1=O` (mixture of isomers) [Compound E, 9(S)-[1(R and S)-carboxy-2-phenylethylamino]-octahydro-6,10-dioxo-6H-pyridazo[1,2-a][1,2]diazepine-1(S)-carboxylic acid], 26 nM; that for `CC(C)CCC(N[C@H]1CCC(=O)N2CCC[C@@H](C(=O)O)N2C1=O)C(=O)O` (mixture of isomers) [Compound F, 9(S)-[1(R and S)-carboxy-4-methylpentylamino]-octahydro-6,10-dioxo-6H-pyridazo[1,2-a][1,2]diazepine-1(S)-carboxylic acid], 12 nM.
